In patent publication US12168013B2, “Antiviral prodrugs and nanoformulations thereof” (Board of Regents of the University of Nebraska, priority 2018, dated 2024):
≈ marks a conversion by molar mass, not a printed value. Where “and” joins values, the source holds several entries; their conditions need not be identical. Equal values may be shown once. One block for each molecule: values may come before it.

What was measured:
Aqueous solubility = format: physicochemical; conditions: optima water, room temperature; for solubility at 24 h: thermodynamic from solid; for aqueous solubility: 24 hours
Description: The aqueous solubility of CAB, MCAB, M2CAB and M3CAB in optima water was determined by adding the excess drug or prodrug powder in 1 mL water to make the saturated aqueous solution. The mixture was stirred for 24 hours at room temperature. Further, the solution was centrifuged at 14000 rpm for 10 minutes to pellet the undissolved powder. The supernatant was collected, lyophilized and dissolved in methanol for the drug content analysis by UPLC UV/Vis.

HIV-1ADA = test: Half-maximum effective concentration (EC50) assay, HIV-1 RT activity in MDM; format: cell-based; conditions: HIV-1ADA MOI 0.1, 10 days
Description: MDMs were plated in clear flat-bottom 24-well plates at a density of 0.8×10^6 cells/well. […] Following treatment, cells were washed with PBS and cultured in fresh culture medium with half-media replacement every other day. At 1, 5, 10, 15, 20, 25 and 30 days after the treatment, the cells were infected with HIV-1ADA (a macrophage tropic viral strain) at a multiplicity of infection (MOI) of 0.1 infectious particles per cell for 16 hours. Following infection period, MDM were washed with PBS and replenished with fresh media. Cells were cultured for next ten days with half-media replacement every other day, and the full media replacement on the 8th day. The culture media was collected on the 10th day after infection for the measurement of HIV-1 RT activity (Kalter, et al., J. Immunol. (1991) 146:3396-3404; Nowacek, et al., J. Neuroimmune Pharm. (2010) 5:592-601). The extent of infection was expressed as a percent of RT activity by infected MDM that were not treated. Cells were fixed in 2% PFA, and expression of HIV-1 p24 antigen was determined by immunocytochemistry (Nowacek, et al., J. Neuroimmune Pharm. (2010) 5:592-601).
MDM were plated in clear flat-bottom 96-well plates (0.08×10^6 cells/well). […] After 4 hours of viral challenge, cells were washed and given fresh media containing drug (0.1-1000 nM). Subsequently, cell supernatants were collected 10 days later and assayed for HIV-1 RT activity as described above.

HIV-1 = conditions: protein-adjusted; cited from earlier work
[1] = after oral administration; cited from earlier work
1-octanol solubility = conditions: organic solvent or mixture
[2] = Plasma cleavage drug hydrolysis kinetics; format: in vitro ADME, mouse, rat, rabbit, monkey, dog, and human; conditions: for prodrug cleavage in plasma: plasma of all species tested
Description: The hydrolysis kinetics of MCAB, M2CAB and M3CAB and relative release of active drug were determined in plasma of different species (mouse, rat, rabbit, monkey, dog, and human). MCAB, M2CAB or M3CAB (1 μM) were incubated in 100 μL plasma at 37° C. At different time points, 1 mL acidified methanol (0.1% formic acid and 25 mM ammonium formate to avoid further prodrug hydrolysis) was added to each sample and vortexed for 3 minutes to stop the reaction. For 0-minute time-point, a 100 μL ice cold plasma was spiked with prodrug stock solution, and 1 ml of ice cold acidic methanol was added immediately. Following the addition of methanol, samples were centrifuged at 15,000 g for 10 minutes, and collected supernatant was analyzed for drug content by UPLC-MS/MS (Waters Xevo TQ-XS).

[3] = Chemical stability at acidic, neutral and basic pH; format: physicochemical; conditions: for prodrug hydrolysis: 24 hours
Description: The stability of MCAB, M2CAB and M3CAB in acidic (pH 1), basic (pH 11) and neutral (pH 7) conditions at room temperature and elevated temperature (37° C.) was determined. The stock solution of each prodrug was prepared in DMSO at a concentration of 1 mg/mL. For acidic, basic and neutral assays, 100 μL of stock solution of each prodrug was added to 1900 μL of 0.1 M HCl, 0.1 M NaOH or optima-grade water (pH adjusted to 7), respectively. Samples were then incubated at room temperature and […] under shaking conditions (Innova® 42 shaker incubator, 150 rpm). Samples were withdrawn at 0, 2, 4, 8 and 24 hours and stored at −80° C. Later, samples were analyzed for drug content by UPLC-UV/Vis.

[4] = PK and biodistribution in NSG mice; format: in vivo
Description: Drug levels from plasma and tissues were assayed by UPLC-MS/MS. Drug levels in plasma were monitored weekly.
Following injection, blood samples were collected into heparinized tubes at day 1 post-administration and then weekly up to day 364 by cheek puncture (submandibular vein, MEDIpoint, Inc., Mineola, NY). Collected blood (25 μL) was immediately diluted into 1 mL ACN and stored at −80° C. until drug measurements. Remaining blood samples were centrifuged at 2,000 g for 8 minutes for plasma collection. Plasma was collected and stored at −80° C. for analysis of drug contents. At day 14, 28, 42 and 364 following administration, animals were humanly euthanized by isoflourane inhalation, followed by cervical dislocation. Spleen, lymph nodes, liver, lung, gut, kidney, brain, vaginal tissue, and rectal tissue were collected for quantitation of CAB and prodrug concentrations. CAB, MCAB, M2CAB and M3CAB were quantitated in mouse plasma, blood and tissues by UPLC-MS/MS using a Waters ACQUITY H-class UPLC (Waters, Milford, MA, USA) connected to a Xevo TQ-S micro mass spectrometer. All solvents for sample processing and UPLC-MS/MS analysis were LCMS-grade (Fisher). For plasma and blood samples, 25 μL of sample was added into 1 mL acetonitrile (ACN) spiked with 10 μL internal standard (IS). d3-Dolutegravir (d3-DTG), myristoylated dolutegravir (MDTG), and stearoylated darunavir (SDRV), at a final concentration of 200, 20 and 20 ng/mL, respectively, were used as ISs for CAB, MCAB and M2CAB/M3CAB analyses, respectively. Samples were vortexed and centrifuged at 17,000×g for 10 minutes at 4° C. […] For tissue drug quantitation, 3-200 mg of sample was homogenized in 4-29 volumes of 0.1% v/v formic acid and 2.5 mM ammonium formate containing 90% methanol. […] For CAB quantitation, chromatographic separation of 10 μL CAB sample was performed on a Waters ACQUITY UPLC BEH Shield RP18 column (1.7 μm, 2.1 mm×100 mm) using a 10-minute gradient of mobile phase A (7.5 mM ammonium formate in water, adjusted to pH 3 using formic acid) and mobile phase B (100% ACN) at a flow rate of 0.25 mL/minute. […]

[5] = Human immunodeficiency virus 1, 240 h

SMILES: C[C@H]1CO[C@@H]2Cn3cc(C(=O)NCc4ccc(F)cc4F)c(=O)c(O)c3C(=O)N12 [CAB, cabotegravir]
solubility at 24 h (Aqueous solubility): 12.1 ± 0.41 µg/mL (≈ 29.9 µM)
EC50 (HIV-1ADA; [5]): 28.4 nM
4×PA-IC90 (HIV-1): 0.66 µg/mL and 0.664 µg/mL
PA-IC90 (HIV-1): 0.166 µg/mL
systemic half-life [1]: approximately 40 hours
solubility (1-octanol solubility): 90 ± 2 µg/mL (≈ 222 µM)

solubility at 24 h (Aqueous solubility): 1.91 ± 0.23 µg/mL (≈ 2.84 µM)
prodrug cleavage in plasma ([2]; by 2 hours, average): 75%
prodrug cleavage in plasma ([2]; by 6 hours, average): 80%
prodrug hydrolysis ([3]; 37° C., acidic (pH 1)): > 95%
prodrug hydrolysis ([3]; 37° C., neutral (pH 7)): 28%
time to complete hydrolysis ([3]; 37° C., basic (pH 11)): ≤ 2 h
prodrug hydrolysis ([3]; room temperature, acidic (pH 1)): 19%
prodrug hydrolysis ([3]; room temperature, basic (pH 11)): completely hydrolyzed
prodrug hydrolysis ([3]; room temperature, neutral (pH 7)): 24%
EC50 (HIV-1ADA; [5]): 44.7 nM
concentration at 1 day ([4]; female, NSG, mouse, whole blood, intramuscular, 45 mg/kg CAB-equivalents, day 1 post-injection, read-out: prodrug concentration in blood): 31.3 ng/mL
solubility (1-octanol solubility): 2640 ± 20 µg/mL (≈ 3930 µM)
SMILES: CCCCCCCCCCCCCCCCCC(=O)Oc1c2n(cc(C(=O)NCc3ccc(F)cc3F)c1=O)C[C@H]1OC[C@H](C)N1C2=O [M2CAB]

aqueous solubility (Aqueous solubility): 2.83 ± 1.37 µg/mL (≈ 4.6 µM)
prodrug cleavage in plasma ([2]; within 30 minutes, 37° C., 1 μM): more than 85%
EC50 (HIV-1ADA): 34.2 nM
prodrug concentration in blood ([4]; day 1 post-injection): 22 ng/mL
prodrug levels in tissues ([4]; day 364): undetectable
SMILES: CCCCCCCCCCCCCC(=O)Oc1c2n(cc(C(=O)NCc3ccc(F)cc3F)c1=O)CC1OCC(C)N1C2=O (centres unmarked) [MCAB]

aqueous solubility (Aqueous solubility): 1.51 ± 0.7 µg/mL (≈ 2.07 µM)
prodrug remaining in plasma ([2]; after 24 hours of incubation): around 50%
EC50 (HIV-1ADA): 51.1 nM
SMILES: CCCCCCCCCCCCCCCCCCCCCC(=O)Oc1c2n(cc(C(=O)NCc3ccc(F)cc3F)c1=O)CC1OCC(C)N1C2=O (centres unmarked) [M3CAB]
